In patent publication US6962906B2, “Oligonucleotide analogues, methods of synthesis and methods of use” (Active Motif, priority 2000, dated 2005):

Test system: Target oligonucleotides (SEQ ID NO:33-36)
Test: Affinity PAGE capture of target DNA and RNA oligonucleotides, detection with ethidium bromide
Type: binding
Settings: electrophoresis at 40° C.
Excerpt: A HypNA-pPNA capture probe with the sequence: (Ch-Tp-Gh-Cp-Ah-Ap-Ah-Gp-Gh-Ap-Ch-Ap-Ch-Cp-Ah-Tp)-dG was synthesized coupled to a 5′ acrylamide residue as described in Example 19. The capture probe was co-polymerized with acrylamide as described in Example 18 in slots of an acrylamide gel as described in Rehman et al. (Nucleic Acids Research 27: 649-655 (1999)). Target oligonucleotides having the sequence: • d([…]) (SEQ ID NO:33)—complementary • d([…]) (SEQ ID NO:34)—mismatched • r([…]) (SEQ ID NO:35)—complementary • r([…]) (SEQ ID NO:36)—mismatched were electrophoresed through lanes of the gel at 40° C.
Following electrophoresis, the gel was stained with ethidium bromide and photographed under UV illumination.

## (Ch-Tp-Gh-Cp-Ah-Ap-Ah-Gp-Gh-Ap-Ch-Ap-Ch-Cp-Ah-Tp)-dG [capture HypNA-pPNA probe]
Complementary DNA and RNA targets, lanes 1, 3, and 5
  capture of complementary target oligonucleotides in the gel (ethidium bromide fluorescence): ethidium-stained fluorescent hybrids captured by the gel layer
Single nucleobase mismatched DNA and RNA targets, lanes 2, 4, and 6
  capture of mismatched target oligonucleotides in the gel (ethidium bromide fluorescence): did not result in the capture of a target
